These results are taken from patent US20090325902A1, “HETEROCYCLIC UREA DERIVATIVES AND METHODS OF USE THEREOF” (ASTRAZENECA AB, priority 2008, published 2009).

Converted amounts (≈) assume the structure as drawn. Some results are limits rather than exact numbers.

The target of assay [1] is E. coli Topoisomerase IV ATPase (Escherichia coli, UniProt P20083). The experiment in a line: E. coli Topoisomerase IV ATPase inhibition. The assay is classed as biochemical. How it is done:
E. coli Topoisomerase IV ATPase Inhibition Activity: Compounds can be tested for inhibition of E. coli topoisomerase IV ATPase activity as described above for E. coli GyrB except the 30 μl reactions contained the following: 20 mM TRIS buffer pH 8, 50 mM ammonium acetate, 8 mM magnesium chloride, 5% glycerol, 5 mM 1,4-Dithio-DL-threitol, 0.005% Brij-35, 5 μg/ml sheared salmon sperm DNA, 500 pM E. coli ParC, 500 pM E. coli ParE, 160 μM ATP, and compound in dimethylsulfoxide. An IC50 measurement of compound potency for each compound can be determined from reactions performed in the presence of 10 different compound concentrations.

Assay [2] concerns the target E. coli GyrB ATPase (Escherichia coli, UniProt P0AES6). The experiment in a line: E. coli GyrB ATPase inhibition (ammonium molybdate/malachite green phosphate detection). The assay is classed as biochemical. How it is done: E. coli GyrB ATPase Inhibition Activity: Compounds can be tested for inhibition of E. coli GyrB ATPase activity using an ammonium molybdate/malachite green-based phosphate detection assay (Lanzetta, P. A., L. J. Alvarez, P. S. Reinach, and O. A. Candia, 1979, 100: 95-97). Assays can be performed in multiwell plates in 30 μl reactions containing: 50 mM Hepes buffer pH 7.5, 75 mM ammonium acetate, 8.0 mM magnesium chloride, 0.5 mM ethylenediaminetetraacetic acid, 5% glycerol, 1 mM 1,4-Dithio-DL-threitol, 200 nM bovine serum albumin, 1.6 μg/ml sheared salmon sperm DNA, 400 pM E. coli GyrA, 400 pM E. coli GyrB, 250 μM ATP, and compound in dimethylsulfoxide. Reactions can be quenched with 30 μl of ammonium molybdate/malachite green detection reagent containing 1.2 mM malachite green hydrochloride, 8.5 mM ammonium molybdate tetrahydrate, and 1 M hydrochloric acid. Plates can be read in an absorbance plate reader at 650 nm and percent inhibition values are calculated using dimethylsulfoxide (2%)-containing reactions as 0% inhibition and EDTA-containing (2.4 μM) reactions as 100% inhibition controls. An IC50 measurement of compound potency for each compound can be determined from reactions performed in the presence of 10 different compound concentrations.

Assay [3] has as its system Streptococcus pneumoniae. The experiment in a line: Bacterial susceptibility testing in liquid media (MIC). The assay is classed as cell-based. To be noted: lowest drug concentration able to reduce growth by 80% or more, read-out: MIC against Streptococcus pneumoniae. From the text:
Compounds may be tested for antimicrobial activity by susceptibility testing in liquid media. Compounds may be dissolved in dimethylsulfoxide and tested in 10 doubling dilutions in the susceptibility assays. The organisms used in the assay may be grown overnight on suitable agar media and then suspended in a liquid medium appropriate for the growth of the organism. The suspension can be a 0.5 McFarland and a further 1 in 10 dilution can be made into the same liquid medium to prepare the final organism suspension in 100 μL. Plates can be incubated under appropriate conditions at 37° C. for 24 hrs prior to reading. The Minimum Inhibitory Concentration (MIC) may be determined as the lowest drug concentration able to reduce growth by 80% or more.

The target of assay [4] is S. aureus GyrB ATPase (Staphylococcus aureus, UniProt P0A0K8). The experiment in a line: S. aureus GyrB ATPase inhibition (ammonium molybdate/malachite green phosphate detection). The assay is classed as biochemical. To be noted: compound concentration of 1 μM; read-out: percent inhibition of S. aureus GyrB ATPase. How it is done: S. aureus GyrB ATPase Inhibition Activity: Compounds may be tested for inhibition of S. aureus GyrB ATPase activity using an ammonium molybdate/malachite green-based phosphate detection assay (Lanzetta, P. A., L. J. Alvarez, P. S. Reinach, and O. A. Candia, 1979, 100: 95-97). Assays can be performed in multiwell plates in 30 μl reactions containing: 50 mM Hepes buffer pH 7.5, 75 mM ammonium acetate, 8.0 mM magnesium chloride, 0.5 mM ethylenediaminetetraacetic acid, 5% glycerol, 1.0 mM 1,4-Dithio-DL-threitol, 200 nM bovine serum albumin, 1.0 μg/ml sheared salmon sperm DNA, 250 pM E. coli GyrA, 250 pM S. aureus GyrB, 250 μM ATP, and compound in dimethylsulfoxide. Reactions can be quenched with 30 μl of ammonium molybdate/malachite green detection reagent containing 1.2 mM malachite green hydrochloride, 8.5 mM ammonium molybdate tetrahydrate, and 1 M hydrochloric acid. Plates can be read in an absorbance plate reader at 650 nm and percent inhibition values can be calculated using dimethylsulfoxide (2%)-containing reactions as 0% inhibition and EDTA-containing ([…]) reactions as 100% inhibition controls. An IC50 measurement of compound potency for each compound can be determined from reactions performed in the presence of 10 different compound concentrations.
Sequence of S. aureus GyrB ATPase (P0AES4 whole entry): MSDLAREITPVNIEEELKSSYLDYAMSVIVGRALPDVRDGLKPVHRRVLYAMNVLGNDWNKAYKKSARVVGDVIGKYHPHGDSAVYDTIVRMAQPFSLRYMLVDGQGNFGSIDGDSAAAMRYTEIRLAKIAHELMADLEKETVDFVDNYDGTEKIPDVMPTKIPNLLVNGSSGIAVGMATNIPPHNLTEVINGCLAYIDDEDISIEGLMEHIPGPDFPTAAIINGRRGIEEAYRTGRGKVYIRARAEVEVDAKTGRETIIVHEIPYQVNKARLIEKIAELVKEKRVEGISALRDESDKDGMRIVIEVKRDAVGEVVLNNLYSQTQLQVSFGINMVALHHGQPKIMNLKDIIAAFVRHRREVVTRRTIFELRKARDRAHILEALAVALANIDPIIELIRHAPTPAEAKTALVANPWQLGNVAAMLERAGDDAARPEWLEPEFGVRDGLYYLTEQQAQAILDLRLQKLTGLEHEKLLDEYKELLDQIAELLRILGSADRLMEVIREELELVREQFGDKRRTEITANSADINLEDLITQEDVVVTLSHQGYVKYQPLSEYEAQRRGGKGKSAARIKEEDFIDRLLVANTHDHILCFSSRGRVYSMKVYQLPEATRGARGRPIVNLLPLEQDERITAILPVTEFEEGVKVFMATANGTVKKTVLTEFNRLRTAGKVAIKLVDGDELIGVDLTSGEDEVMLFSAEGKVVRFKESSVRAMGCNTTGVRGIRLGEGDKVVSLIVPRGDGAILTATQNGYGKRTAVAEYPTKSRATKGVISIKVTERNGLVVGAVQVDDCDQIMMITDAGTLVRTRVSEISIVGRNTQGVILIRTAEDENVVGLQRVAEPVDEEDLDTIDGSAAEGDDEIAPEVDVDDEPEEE
Sequence of S. aureus GyrB ATPase (P0A0K8 whole entry): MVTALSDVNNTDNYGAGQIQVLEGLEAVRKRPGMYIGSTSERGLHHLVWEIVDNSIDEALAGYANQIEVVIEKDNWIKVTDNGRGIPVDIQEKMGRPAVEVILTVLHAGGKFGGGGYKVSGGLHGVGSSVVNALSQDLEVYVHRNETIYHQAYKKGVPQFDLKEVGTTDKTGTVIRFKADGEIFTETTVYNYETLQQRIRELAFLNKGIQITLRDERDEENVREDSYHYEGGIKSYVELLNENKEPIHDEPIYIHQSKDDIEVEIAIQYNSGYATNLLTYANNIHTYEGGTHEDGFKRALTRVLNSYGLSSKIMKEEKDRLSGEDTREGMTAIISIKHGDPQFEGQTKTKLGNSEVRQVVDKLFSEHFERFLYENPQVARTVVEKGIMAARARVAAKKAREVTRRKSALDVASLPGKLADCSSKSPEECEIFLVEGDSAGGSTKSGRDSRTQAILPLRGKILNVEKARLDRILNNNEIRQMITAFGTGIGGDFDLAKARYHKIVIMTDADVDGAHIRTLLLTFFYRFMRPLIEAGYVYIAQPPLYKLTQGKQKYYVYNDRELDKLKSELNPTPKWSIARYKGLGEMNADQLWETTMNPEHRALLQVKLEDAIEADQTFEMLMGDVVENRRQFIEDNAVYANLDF

Sequence of E. coli Topoisomerase IV ATPase (P0AFI2 whole entry): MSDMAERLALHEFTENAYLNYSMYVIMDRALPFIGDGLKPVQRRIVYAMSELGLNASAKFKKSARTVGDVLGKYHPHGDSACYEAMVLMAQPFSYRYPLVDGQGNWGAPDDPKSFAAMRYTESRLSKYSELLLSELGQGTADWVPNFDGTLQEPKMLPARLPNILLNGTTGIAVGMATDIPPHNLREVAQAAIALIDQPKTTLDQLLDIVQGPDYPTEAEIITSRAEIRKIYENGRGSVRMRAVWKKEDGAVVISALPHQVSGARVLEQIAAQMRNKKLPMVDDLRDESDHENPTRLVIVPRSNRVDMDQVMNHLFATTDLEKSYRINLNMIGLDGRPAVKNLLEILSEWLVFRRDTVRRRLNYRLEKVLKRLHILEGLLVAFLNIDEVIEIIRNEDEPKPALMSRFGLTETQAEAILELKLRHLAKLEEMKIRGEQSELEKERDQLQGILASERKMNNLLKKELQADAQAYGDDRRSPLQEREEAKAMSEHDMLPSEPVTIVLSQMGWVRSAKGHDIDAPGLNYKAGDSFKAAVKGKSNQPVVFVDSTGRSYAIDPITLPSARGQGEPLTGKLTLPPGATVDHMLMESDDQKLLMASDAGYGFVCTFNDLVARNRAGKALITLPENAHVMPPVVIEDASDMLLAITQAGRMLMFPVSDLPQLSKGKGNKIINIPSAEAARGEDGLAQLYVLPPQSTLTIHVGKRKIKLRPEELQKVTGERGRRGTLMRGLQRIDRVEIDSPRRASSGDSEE
Sequence of E. coli Topoisomerase IV ATPase (P20083 whole entry): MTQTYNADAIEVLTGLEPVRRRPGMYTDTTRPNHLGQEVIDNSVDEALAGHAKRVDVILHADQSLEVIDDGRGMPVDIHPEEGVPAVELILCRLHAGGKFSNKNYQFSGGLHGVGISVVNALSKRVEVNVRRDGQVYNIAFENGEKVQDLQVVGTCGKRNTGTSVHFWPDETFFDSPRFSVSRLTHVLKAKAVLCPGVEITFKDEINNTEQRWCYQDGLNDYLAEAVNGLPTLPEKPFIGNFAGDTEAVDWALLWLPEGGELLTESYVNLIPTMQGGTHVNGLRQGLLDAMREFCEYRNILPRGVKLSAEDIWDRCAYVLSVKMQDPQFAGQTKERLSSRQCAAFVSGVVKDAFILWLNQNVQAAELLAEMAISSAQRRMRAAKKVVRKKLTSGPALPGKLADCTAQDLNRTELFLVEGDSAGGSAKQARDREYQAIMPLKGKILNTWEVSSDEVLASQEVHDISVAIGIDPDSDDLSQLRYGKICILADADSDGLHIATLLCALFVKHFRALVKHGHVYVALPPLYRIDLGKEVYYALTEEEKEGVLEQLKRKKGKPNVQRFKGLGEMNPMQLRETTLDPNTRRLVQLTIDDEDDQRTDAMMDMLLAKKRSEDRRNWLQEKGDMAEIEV

As for `CCNC(=O)Nc1cc(C#Cc2ccccn2)c(-c2cncc(-c3n[nH]c(=O)o3)c2)cn1` [Example 1, 1-ethyl-3-(5′-(5-oxo-4,5-dihydro-1,3,4-oxadiazol-2-yl)-4-(pyridin-2-ylethynyl)-3,3′-bipyridin-6-yl)urea], the IC50 in assay [1] and in assay [2] was below 200 µM throughout. In assay [3], the MIC was 0.2 µM (≈ 0.0855 µg/mL). In assay [4], the inhibition at 1 µM came to 102%.

By IC50 is commonly meant the point on the concentration scale where inhibition reaches its midpoint. A higher IC50 goes with a need for much substance. Broadly, the MIC is the smallest concentration in the dilution series that meets the test's criterion for growth inhibition. The term inhibition denotes the relative decrease from the control value, in per cent.
